# Columns and labels:
# [1] = Nitric oxide gas bubbled through carrier, weight gain; format: physicochemical; settings: NO gas bubbled 40 hr, 25 ° C.
# Procedure: This example illustrates one technique for preparing a composition in accordance with one embodiment of the invention. An accurate amount of a carrier (HNC 167-62) (see below) was introduced into a system. The carrier weight used in these experiments was approximately 250 g and the vessel size was 500 ml. The vessel was equipped with a mechanical stirrer, gas inlet, and gas outlet and was previously purged with argon for about an hour. The temperature of the carrier was kept at about 25-30° C. NO gas regulated at 5 psi (1 psi is about 6,900 Pa) and was then introduced at a controlled rate of about 1 bubble/s with continuous stirring. […] After 6 hours, the weight of the carrier had increased by 0.15%, by 12 hours by 0.25%, and by 24 hours by 0.56%. These increases in weight were believed to be significant considering the relative small molecular weight of NO versus the carrier. […] The carrier also can solidify upon cooling if the carrier is initially a solid at lower temperature.
# Each carrier was taken in a 500 mL three necked flask equipped with a mechanical stirrer, gas inlet and a gas outlet. The system was purged with argon for one hour at room temperature (25° C.). Then nitric oxide gas was bubbled into the system. Then, nitric oxide gas was bubbled through carrier for stipulated amount of time. The changes in weight and color were noted. […]
# [2] = test system: micro-capillary blood flow to skin; assay: Laser Doppler study in closed Hilltop chamber on forearm, Example 5; format: in vivo, human; settings: applied to the skin at 1/10% in alcohol
# Excerpt: The formulation used in these studies contained nitric oxide dispersed in a lipid matrix. […] Nitric oxide is a very rapid acting molecule, and these studies used a system that employed laser Doppler with a covered chamber. The formulation was placed into the chamber and then attached to the skin by an adhesive layer on the covering. This provided a stable measuring device as determined by multiple normal evaluations of the capillary blood flow without treatment of nitric oxide.
# A known positive control, methyl nicotinate, was applied to the skin at a concentration of 1/10% in alcohol. […] The vascular dynamics are such that when the blood vessels dilate physical parameters follow Bernoulli's law. […] The laser Doppler device accurately measured these parameters.
# In these studies, the participants were healthy females aged 30 to 55 years. They were in good health as determined by the medical history and were not taking any prescription medications. All study participants read and signed the informed consent statement prior to any study procedures being performed. […]
# A Moor Instruments DRT4 Laser Doppler Blood Flow Monitor (Devon, England) was used in these studies. The laser Doppler technique measured blood flow in the microcapillaries of the skin that are close to the skin surface and the blood flow in underlying arterioles and venules that help to regulate skin temperature. […]
# [3] = test system: capillary circulation of the skin; assay: Laser Doppler study of creams in five human subjects, Example 7; format: in vivo; settings: positive control formulation containing 0.1% methyl nicotinate
# Excerpt: This example illustrates delivery of nitric oxide formulations to five human subjects, using procedures and formulations similar to those discussed in Example 5. Each person served as their own control for the testing. A Moor Instruments Laser Doppler was used to determine circulation. […] The formulations used produce positive, almost immediate results when applied to the skin which, in these studies, was manifested by vasodilatation of the cutaneous vascular system.
# For each subject, the following creams were applied: a negative control formulation (containing no NO), 0.010 gram of a 10,000 ppm NO formulation, 0.020 gram of a 10,000 ppm NO formulation, and a positive control formulation containing 0.1% methyl nicotinate. The formulations were prepared using procedures similar to those discussed in Example 1.
SMILES,% Wt. gain [1] [%],laser Doppler response to positive control [2],vasodilatation (laser Doppler) [3]
"OCCCO [1,3-Propanediol, 1,3-propanediol]",0.09,,
COC(=O)c1cccnc1 [methyl nicotinate],,rapid response typical of the vasodilator,vasodilatation was observed
